Measured values reported in patent US20190008878A1, “COMPOSITIONS AND METHOD FOR REDUCING CARDIOTOXICITY” (SignPath Pharma Inc., priority 2017, published 2019).
“Also recorded” adds a separate entry of the source.

Experiments:
[1] = tested on: HEK293 cells; conditions: 20 μM, 24 h incubation; cited from earlier work
[2] = Langendorff retrograde perfusion of hearts taken on Day 86 (left ventricle contractility and kinetics); set-up: species or system Hartley guinea pigs; conditions: Day 86, ex vivo Langendorff
Description: In FIG. 5B, on Day 86, the animals were euthanized and the hearts mounted onto a Langendorff retrograde perfusion system. A left ventricular pressure transducer was inserted into the left ventricle and recorded LV contraction amplitude and kinetics.
In FIG. 6, the pressure developed by the heart on Day 86 of treatment was measured ex-vivo in a Langendorff retrograde perfusion system.

[3] = chronic sunitinib cardiotoxicity study, two 28-day cycles with or without the invention (ECG, echocardiography, arterial pressure, body weight, troponin); format: in vivo, Hartley guinea pigs; conditions: for left ventricular / cardiac hypertrophy (cardiac weight): after 86 days (2 cycles) of treatment

Structure (SMILES)	HEK293 cell viability [1]	end-systolic / developed left ventricular pressure [2]	rate of contraction of the LV ([2]; LV pressure transducer)	mean arterial blood pressure ([3]; Day 86, invasive femoral artery catheter, anesthetized animals, sunitinib alone compared with sunitinib plus the invention)	left ventricular / cardiac hypertrophy (cardiac weight) [3]	left ventricular / cardiac hypertrophy (cardiac weight) ([3]; listed as Sunitinib)	QTc prolongation ([3]; as of Day 28, increasing steadily until Day 86, sunitinib 10 mg/kg/day, Bazett correction, n=6 per group) [ms]	Troponin I levels ([3]; blood, sunitinib alone compared with sunitinib plus the invention)	LV ejection velocity at the aortic valve (AoVMax) ([3]; cardiac echography, over the treatment)	left ventricular distension (end of diastole and end of systole) ([3]; echocardiography, over the treatment)	left ventricular distension (end of diastole and end of systole) ([3]; echocardiography, over the treatment, listed as Sunitinib)	left-ventricular fractional shortening ([3]; echocardiography, difference between groups significant after 86 days)	Troponin levels compared with intact animals ([3]; intact animals 0.05 ng/mL (data not shown))
COc1cc(/C=C/C(=O)CC(=O)/C=C/c2ccc(O)c(OC)c2)ccc1O [curcumin]	reduced	–	–	–	–	–	–	–	–	–	–	–	–
CCN(CC)CCNC(=O)c1c(C)[nH]c(/C=C2\C(=O)Nc3ccc(F)cc32)c1C [sunitinib]	–	significantly lower	lower	Significantly higher	onset of hypertrophy	caused cardiac hypertrophy	15 to 25	significantly higher	lower; also recorded: gradual decrease	left-ventricular distention	greater LV distension	lower; also recorded: time-dependent loss	significantly greater
